The values that follow come from US20250152556A1, “ETRASIMOD FOR USE IN TREATING S1P1 RECEPTOR-ASSOCIATED DISORDERS IN COMBINATION WITH HORMONE TREATMENT” (Arena Pharmaceuticals, Inc., priority 2022, published 2025).

Molecules are shown by their SMILES.

The conditions of data set [1]: cited from earlier work.
The test system of a further data set is ovarian activity. Put plainly: Phase 1 study: PD markers of ovarian activity (FSH, LH, estradiol, progesterone, SHBG, TVUS/Hoogland score). The class given is in vivo, human. The conditions noted are these: Study Drug 2 mg qd with OC. The source says:
(§1) Secondary objectives of the study were: • To assess the concentrations of follicle stimulating hormone (FSH), luteinizing hormone (LH), estradiol, and progesterone during and after dosing with the monophasic OC alone and when co-administered with Study Drug in healthy premenopausal female subjects. • To evaluate transvaginal ultrasound (TVUS) and Hoogland scores on Days 1 and 11±1 in Period 1 and Period 2 in healthy premenopausal female subjects. • To evaluate sex hormone binding globulin (SHBG) concentrations on Days 1 and 21 in Period 1 and Period 2 in healthy premenopausal female subjects. • To evaluate the steady-state PK of Study Drug when co-administered with the monophasic OC in healthy premenopausal female subjects. • To assess complete blood count (CBC) including differential, absolute lymphocyte count lowering from baseline, and platelet count upon administration of monophasic OC alone and when co-administered with Study Drug in healthy premenopausal female subjects. • To evaluate the safety and tolerability of Study Drug when co-administered with the monophasic OC in healthy premenopausal female subjects.
On Day 1, baseline CBC, FSH, LH, estradiol, progesterone, TVUS, and SHBG were obtained, and then subjects received OC dosing. The TVUS were performed on Day −1 or Day 1. The OC PK was done on Days 21 to 22. […]

Data set [2] in a line: Phase 1 study: steady-state PK of Study Drug co-administered with OC. Particulars: Day 49, Period 2, Study Drug 2 mg qd + OC; compared with Study Drug given alone in previous studies. The data set is classed as in vivo, human.
From the text: as §1
All subjects were co-administered Study Drug 2 mg qd with OC for 21 days (Days 29 to 49; test treatment), followed by a 7-day dose-free period (Days 50 to 56). On Days 49 to 50, subjects underwent assessments for PK of Study Drug and OC. […]

For the next data set, the system named is lymphocyte counts. Put plainly: Phase 1 study: lymphocyte counts (CBC). The data set is classed as in vivo, human.
From the text: as §1
Subjects were administered 2 mg Study Drug, specifically, the L-arginine salt of Compound 1, i.e., Compound 2, qd on Days 23 to 28. […]

Data set [3] can be described thus: Phase 1 study: safety and tolerability (AEs, 12-lead ECG, Holter, laboratory, vital signs). The class given is in vivo, human. On the procedure:
Subjects were administered 2 mg Study Drug, specifically, the L-arginine salt of Compound 1, i.e., Compound 2, qd on Days 23 to 28. Subjects were fitted with a Holter monitor and 24-hour continuous electrocardiogram (ECG) recording was performed starting before the Study Drug dose on Day 23 of Period 1 until Day 24 of Period 1.
All subjects were co-administered Study Drug 2 mg qd with OC for 21 days (Days 29 to 49; test treatment), followed by a 7-day dose-free period (Days 50 to 56). On Days 49 to 50, subjects underwent assessments for PK of Study Drug and OC. Further PD assessments and safety evaluations were performed as described in the schedules of assessments and procedures. Subjects were fitted with a Holter monitor and 24-hour continuous ECG recording was performed starting before the Study Drug dose on Day 49 of Period 2 until Day 50 of Period 2.
Subject safety and tolerability were monitored during the study using standard measures, including adverse event (AE) monitoring, orthostatic vital signs, 12-lead ECGs, continuous ECG recordings (Holter), clinical laboratory evaluations, physical examinations, and concomitant medication usage.
• Evaluations of AEs, orthostatic vital signs, 12-lead ECGs, continuous ECG recording (Holter), clinical laboratory evaluations, physical examinations, concomitant medications

On the set-up of data set [4]: species or system human. Particulars: in vivo. Here is the method: A phase 1, open-label, repeat-dose, two-way, single-sequence study was conducted to evaluate the effect of Compound 1, or a pharmaceutically acceptable salt, hydrate, or solvate thereof, (“Study Drug”) on the pharmacokinetics and pharmacodynamics of a monophasic oral contraceptive (OC) in healthy premenopausal female subjects.
The primary objective of the study was to evaluate the pharmacokinetics (PK) of a monophasic OC (30 μg ethinylestradiol [EE] and 150 μg levonorgestrel [LVG]) alone and when co-administered with repeated doses of Study Drug in healthy premenopausal female subjects.
All subjects received monophasic OC once daily (qd) for 21 days (Days 1 to 21; reference treatment) followed by a 7-day OC dose-free period (Days 22 to 28). […]
Blood samples for plasma PK evaluation of EE, LVG, and Study Drug were collected. The following PK parameters were determined for EE, LVG, and/or Study Drug and, if warranted, metabolites thereof. • Cmax,ss maximum plasma concentration at steady-state • Cmin,ss plasma concentration at 24-hours postdose at steady-state • Tmax,ss time to Cmax at steady-state • AUCtau,ss area under the plasma concentration-time curve (AUC) during the dosing interval (tau) at steady-state • CLSS/F Apparent plasma clearance of drug after extravascular administration at steady-state

Setting [5] is: after the first dose (Day 23), 2 mg.
Setting [6] is: repeat dosing at steady-state (Day 49), 2 mg qd.

For `O=C(O)C[C@H]1CCc2c1[nH]c1ccc(OCc3ccc(C4CCCC4)c(C(F)(F)F)c3)cc21` [Compound 1, (R)-2-(7-(4-cyclopentyl-3-(trifluoromethyl)benzyloxy)-1,2,3,4-tetrahydrocyclopenta[b]indol-3-yl)acetic acid], the “endoscopic and symptomatic improvements versus placebo” value in data set [1] (Phase 2, ulcerative colitis patients, 2 mg QD for 12 weeks) is “clinically meaningful and statistically significant”. The “safety and tolerability in adult subjects” value in data set [1] (approximately 281 adult subjects, various doses, Phase 1 single doses up to 5 mg, repeated up to 4 mg QD) is “safe and well-tolerated”. In data set [1] (open-label extension study), the “duration of sustained beneficial effects” value is “up to 46 weeks”.

Regarding `N=C(N)NCCC[C@H](N)C(=O)O.O=C(O)C[C@H]1CCc2c1[nH]c1ccc(OCc3ccc(C4CCCC4)c(C(F)(F)F)c3)cc21` [Compound 2, 1:1 salt of (R)-2-(7-(4-cyclopentyl-3-(trifluoromethyl)benzyloxy)-1,2,3,4-tetrahydrocyclopenta[b]indol-3-yl)acetic acid with L-arginine], in the data set with ovarian activity, the “impact of Study Drug on PD performance of the OC (FSH, LH, estradiol, progesterone, SHBG, TVUS/Hoogland score)” value is on record as “no apparent clinically relevant impact”. Moreover, the “Study Drug steady-state plasma exposure measures (Cmax,ss, Cmin,ss, AUCtau,ss)” value in data set [2] is “generally consistent with previous study findings”. Also, the “mean lymphocyte counts relative to mean baseline (Day 23) after discontinuation” value with lymphocyte counts (Day 56, 7 days after discontinuation of study treatment) turned out to be 94%. The “mean lymphocyte count reduction from mean baseline (Day 23)” value in the data set with lymphocyte counts (Period 2, Study Drug 2 mg qd + OC, Day 49) was −56.7%. Moreover, the “clinically significant abnormalities of 12-lead ECG parameters including PR interval and QT interval” value in data set [3] (Days 23 or 49) was “No subject had an ECG with clinically significant abnormalities”. Also, in data set [3] (setting [5]), the “HR lowering effects, continuous Holter ECG recording” value was “typically mild” and the “HR lowering effects, safety 12-lead ECG” value is given as “typically mild”. In addition, the “safety or tolerability events of concern” value in data set [3] (conclusion, coadministration with OC) was “No safety or tolerability events of concern”. Further, in data set [3] (setting [6]), the “HR lowering effects, continuous Holter ECG recording” value is “less impacted” and the “HR lowering effects, safety 12-lead ECG” value was “less impacted”.

Turning to `C#C[C@]1(O)CC[C@H]2[C@@H]3CCc4cc(O)ccc4[C@H]3CC[C@@]21C` [Ethinylestradiol (EE), ethinylestradiol], in data set [4], the “change in peak (Cmax,ss) and total (AUCtau,ss) exposure measures when OC coadministered with ETR vs OC alone” value is reported as “minor-to-moderate increases”.

In the case of `C#C[C@]1(O)CC[C@H]2[C@@H]3CCC4=CC(=O)CC[C@@H]4[C@H]3CC[C@@]21CC` [Levonorgestrel (LVG), levonorgestrel], the “change in peak (Cmax,ss) and total (AUCtau,ss) exposure measures when OC coadministered with ETR vs OC alone” value in data set [4] is reported as “minor-to-moderate increases”.
